{"source": "patent US20220256794A1", "about": "“TERPENE SYNTHASES AND TRANSPORTERS” (The State of Israel, Ministry of Agriculture & Rural …, priority 2019, published 2022)", "key": {"tobacco BY-2 cells": {"system": "tobacco BY-2 cells", "assay": "CBD-induced cell death of tobacco BY-2 cells (FDA fluorescence)", "format": "cell-based", "settings": "0.5 mM CBD, control BY2 cells, FIG. 6A top", "excerpt": "For tobacco, the ABC and PTR Transporter genes were cloned into a plant binary expression vector (pGreen 0029) via Agrobacterium mediated transformation as previously described [Cohen, S. et at, Nat. Commun. (2014) 5:4026]. These genes were cloned between the cauliflower mosaic virus (CaMl,) 35S promoter and the polyadenylation signal from the nopaline synthase gene and inserted into tobacco BY2 cells and plants (var. Samson) via stable transformation..\nThe toxic effect and cell death activity of terpenes and cannabinoids in tobacco was assessed on cell cultures as follows: 7-day-old suspension cultured BY-2 tobacco cells at a 5-fold dilution in logarithmic growth phase, incubated in Gamborg B5 medium, was incubated in the presence of 0.5 mM CBD for 48 hours as previously described [Sirikantaramas S. et al., Plant Cell Physiol. (2005) 46:1578-1582].\nCell death in the samples was evaluated using the cell viability indicator fluorescein diacetate (FDA, Sigma-Aldrich). Cell suspension (2.5 mL) was stained with 50 μL of 0.5% fluorescein diacetate (FDA) dissolved in acetone for 10 min. The cells were rinsed three times with I mL isotonic medium to remove excess staining solution. Viability was assessed immediately using an Olympus BX50 fluorescence microscope equipped with a suitable barrier filter (excitation 460-490 nm and emission 510 nm). FDA staining of viable cells results in bright green fluorescence, while nonviable cells remain colorless."}, "yeast cells [1]": {"system": "yeast cells", "assay": "Yeast growth (turbidity A600) in the presence of CBD", "format": "cell-based, Saccharomyces cerevisiae (strain Y1HGold)", "settings": "0.5 mM CBD, FIG. 2", "procedure": "(§1) The genes were expressed in yeast and tobacco. For yeast, the ABC and PTR Transporter genes were synthesized by the TWIST Co, cloned and expressed (individually) in the yeast expression vector pESC-URA (Agilent Technologies) for expression under the yeast native gal-10 promoter. Competent Saccharomyces cerevisiae (strain Y1HGold, CloneTech) cells were prepared, transformed by each of the resulting vector and selected on yeast synthetic media lacking Uracil as previously described [GietzR. D., Methods Mol. Biol. (2014) 1205:1-12].\nAn alternative method is to measure the yeast growth as a function of turbidity. Transformed yeast cells were grown on URA-glucose broth at 30° C. at 200 RPM, and after 24 hours 100 μl was used to inoculate 5 ml of URA-galactose broth in the same conditions till O.D.600 of 1.5. The yeast was further diluted to OD600=0.05 with 10 ml URA-galactose, and divided into two 5 ml aliquots into separate 50 ml falcon tubes. The first falcon (control) was added 78 μl acetonitrile (the solvent that the CBD was dissolved in), and the second one was added 78 μl CBD solution in acetonitrile (final CBD concentration=0.5 mM). […]"}, "yeast cells [2]": {"system": "yeast cells", "assay": "Uptake of CBD into yeast cells", "format": "cell-based, Saccharomyces cerevisiae (strain Y1HGold)", "settings": "0.5 mM CBD, 5 hour period, FIG. 3B", "procedure": "as §1\nAn additional strategy for determining transporter function is to measure the amount of exogenous CBD taken up and incorporated into the cells.\nTransformed yeast cells were grown on URA-glucose broth at 30° C. at 200 RPM, and after 24 hours 100 μl was used to inoculate 5 ml of URA-galactose broth in the same conditions till OD600 of […]. The yeast was incubated with 0.5 mM CBD for 2-8 hours in 30° C. at 100 RPM, then centrifuged at 15000 g for 1 minute, and washed twice with 1 ml distilled water. The pellet was weighed and underwent HPLC analysis to determine the pellet's CBD content. The pellet was extracted in 1 ml methanol, and following centrifugation and filter was analyzed by HPLC using a diode-array detector and CBD was quantified against a commercial standard."}}}
{"molecule": "C=C(C)[C@@H]1CCC(C)=C[C@H]1c1c(O)cc(CCCCC)cc1O", "note": "[CBD, Cannabidiol, reference compound]", "values": [{"measurement": "fluorescence (FDA viability) of control BY2 cells in the presence of CBD", "setting": "tobacco BY-2 cells", "value": "small decrease"}, {"measurement": "growth with CBD as % of growth without CBD", "setting": "yeast cells [1]; control (empty vector) yeast, 7-12 hours after initiation", "value": 42, "unit": "%"}]}
{"molecule": "T-792-1: Cannabis ABC-G transporter gene product, amino acid SEQ ID NO: 47 (protein, ABC+PTR Transporter amino acid sequence (of the 12 identified gene products)) MASVTPSTTIDQEHYHNKKVTISRTTSTTSSNNNTNHGNPRITVVEIETANNRNASYRSSIFGADHEVSLPVVEDHQGVFLTWQDLWVTVSSGKNSNRPILRGLTGYAKPGELLAIMGPSGCGKSTLLDALAGRLNANTRQSGDILINGNKQTLAYGTSAYVTQEDTLLTTLTVREAVHYSAQLQLPDSMSSAEKKERAEMTIREMGLTDAVNTRIGGSGLGTGSKGLSGGQKRRVSICIEILTRPKLLFLDEPTSGLDSAASYYVMSSIASLDIQSRRGGGAGGRRTVVASIHQPSSEVFQLFNTLCLLSAGKIVYFGPASAANEFFTMSGFPCPSLQNPSDHFLKTINKDFDKVQKDLEQGLPIRGRPTVEEAIETLVKSYKASENCQLVQQQVSQICNKKNKSVGLMEKKRSHAGFISQCGVLTRRSFKNMYRDLGYYWFRLVIYIGLAIGLGTIFCNIGHSDGSVEARASLIMYVASFLTFMTIGGFPSFVEDMKVFGRERLNGHYSVTSFVMGNTISAQPYLVLIALIPGALAYFPPGLRGGFEHFIYFVLVLYACMMLVESLMMIVAALVPNFLLGIITGAGIQGFMMLAGGFFRLPNDLPDPFWRYPVFYISFHRYAFQGLYKNEFKGLMFVDEILGKSHKISGDEILRNKYQVNMSYSKWVDFVLLLSMVFAYRVMFLLILKISENYKTISAAFAFGRRKPSTQVMENPTATPPHA", "values": [{"measurement": "inhibition of yeast growth in response to CBD, transporter-expressing yeast vs control yeast", "setting": "yeast cells [1]; 7-12 hours", "value": "reduced inhibition of growth"}, {"measurement": "CBD levels in yeast cells compared to the control", "setting": "yeast cells [2]", "value": "increase in CBD levels"}]}
